Data set [1] in a line: Cytostatic activity against human MIAPaCa2 cells assessed as growth inhibition after 3 to 4 days by MTT assay. The data set is classed as functional, cell-based. The following applies: MIA PaCa-2. For orientation: Formazan colour is commonly taken as a measure of viable cells.
The nature of data set [2]: Antioxidant activity assessed as DPPH scavenging activity at 100 uM after 60 mins by spectrophotometry. The following applies: 1 h. Format: physicochemical. In general terms: DPPH is a stable violet radical that fades when it is reduced.
Data set [3] in a line: Antioxidant activity assessed as inhibition of lipid peroxidation at 100 uM by spectrophotometry. Format: physicochemical.
The nature of data set [4]: Antioxidant activity assessed as DPPH scavenging activity at 100 uM after 20 mins by spectrophotometry. Format: physicochemical.
For the next data set, the system named is L1210. Kind of data set: Cytostatic activity against mouse L1210 cells assessed as growth inhibition after 3 to 4 days by MTT assay. Format: functional, cell-based.
Data set [5] in a line: Cytostatic activity against human Molt4/C8 cells assessed as growth inhibition after 3 to 4 days by MTT assay. The data set is classed as functional, cell-based. The settings on record: MOLT-4.
Another data set concerns MCF7. The experiment in a line: Cytostatic activity against human MCF7 cells assessed as growth inhibition after 3 to 4 days by MTT assay. Format: functional, cell-based.
For a further data set, the system named is CCRF-CEM. The experiment in a line: Cytostatic activity against human CEM cells assessed as growth inhibition after 3 to 4 days by MTT assay. Format: functional, cell-based.
Another data set deals with HeLa. The experiment in a line: Cytostatic activity against human HeLa cells assessed as growth inhibition after 3 to 4 days by MTT assay. The data set is classed as functional, cell-based.
In another data set the target is Lipoxygenase (Glycine max, UniProt Q39829). Kind of data set: Inhibition of soybean LOX using sodium linoleate as substrate by spectrophotometry.
The subject of the next data set is SW-620. The experiment in a line: Cytostatic activity against human SW620 cells assessed as growth inhibition after 3 to 4 days by MTT assay. The data set is classed as functional, cell-based.
Data set [6] in a line: Cytostatic activity against human H460 cells assessed as growth inhibition after 3 to 4 days by MTT assay. The data set is classed as functional, cell-based. The following applies: NCI-H460.
The target in data set [7] is Lipoxygenase (Glycine max) (UniProt Q39829). The experiment in a line: Inhibition of soybean LOX using sodium linoleate as substrate at 100 uM by spectrophotometry.

Data on twelve compounds can be found in ChEMBL document CHEMBL3352491, “Novel semicarbazides and ureas of primaquine with bulky aryl or hydroxyalkyl substituents: synthesis, cytostatic and antioxidative activity” (Eur J Med Chem, 2014).

SMILES strings stand for the structures.

Turning to `COc1cc(NC(C)CCCNC(=O)NNC(=O)NCCO)c2ncccc2c1` (stereo unspecified), the IC50 in data set [1] is at least 250 µM; in the data set with L1210 it was over 250 µM; in [5], over 250 µM; in the data set with MCF7, 13 µM; in the data set on CCRF-CEM, over 250 µM; in the data set with HeLa it was 196 µM. The values for the IC50 result (against Lipoxygenase; in the data set on SW-620; in data set [6]) were “Not Active”, over 100 µM and over 100 µM, respectively. In addition, the Activity is given as 20% in data set [2] and “Not Active” in data set [4]. For the same compound, the “inhibition (INH)” value in data set [3] came to 27%.
Take `COc1cc(NC(C)CCCNC(=O)NNC(=O)NCCCO)c2ncccc2c1` (stereo unspecified): the IC50 in [1] is at least 250 µM; in the data set on L1210, over 250 µM; in data set [5], over 250 µM; in the data set on MCF7 it was 13 µM; in the data set with CCRF-CEM it was over 250 µM; with HeLa, over 250 µM. For the same compound, the IC50 entry is “Not Active” against Lipoxygenase, over 100 µM in the data set on SW-620 and over 100 µM in data set [6]. Further, the Activity in [2] is given as 20%; in data set [4] it was 9%. In data set [3], the “inhibition (INH)” value turned out to be 45%.
With `COc1ccc(/C(=N/NC(=O)NCCCC(C)Nc2cc(OC)cc3cccnc23)c2ccccc2)cc1` (stereo unspecified), the IC50 in data set [1] is 155 µM; in the data set on L1210 it was 34 µM; in [5], at least 250 µM; in the data set on MCF7, 5 µM; in the data set on CCRF-CEM, 10 µM; in the data set on HeLa it was 129 µM. Also, the IC50 was 60.5 µM at Lipoxygenase (read-out: IC50), over 100 µM in the data set with SW-620 and over 100 µM in data set [6]. Also, the Activity in data set [2] was 26%; in [4], 19%. In addition, in data set [3], the “inhibition (INH)” value is 77%.
Turning to `COc1ccc(C(=NNC(=O)NCCCC(C)Nc2cc(OC)cc3cccnc23)c2ccc(OC)cc2)cc1` (stereo unspecified), the IC50 in data set [1] is over 250 µM; in the data set with L1210 it was over 250 µM; in [5] it was over 250 µM; in the data set with MCF7 it was 6 µM; in the data set with CCRF-CEM, over 250 µM; with HeLa it was over 250 µM. For the same compound, the IC50 at Lipoxygenase (read-out: IC50) is 60 µM; in the data set on SW-620 it was over 100 µM; in data set [6] it was over 100 µM. In addition, the Activity in data set [2] was 14%; in data set [4] it was 5%. The “inhibition (INH)” value in data set [3] is on record as 98%.
For the compound `COc1cc(NC(C)CCCNC(=O)NNC(=O)NCCNC(c2ccccc2)(c2ccccc2)c2ccccc2)c2ncccc2c1` (stereo unspecified), the IC50 in [1] is 5 µM; in the data set on L1210, 6.2 µM; in data set [5] it was 8 µM; in the data set with MCF7 it was 2 µM; in the data set with CCRF-CEM it was 4.2 µM; in the data set on HeLa it was 10 µM. Further, the concentration for half-maximal inhibition (IC50) at Lipoxygenase (read-out: IC50) is 100 µM; with SW-620 it was 7 µM; in [6], 4 µM. Also, the results for the Activity in data set [2] and in [4] were 41% and 30%, respectively. Moreover, the “inhibition (INH)” value in data set [3] is recorded as 88%.
As to `COc1cc(NC(C)CCCNC(=O)NNC(=O)Nc2ccc(Cl)c(C(F)(F)F)c2)c2ncccc2c1` (stereo unspecified), the IC50 in data set [1] is 18 µM; with L1210, 19 µM; in [5], 19 µM; in the data set on MCF7, 2 µM; in the data set on CCRF-CEM it was 14 µM; in the data set with HeLa it was 17 µM. For the same compound, the IC50 entry at Lipoxygenase was “Not Active”; in the data set on SW-620, 15 µM; in [6], 13 µM. In addition, the Activity amounted to 90% in data set [2] and 64% in [4]. Besides, the “inhibition (INH)” value in data set [3] is given as 63%.
Regarding `COc1ccc(C(=NNC(=O)NNC(=O)NCCCC(C)Nc2cc(OC)cc3cccnc23)c2ccc(OC)cc2)cc1` (stereo unspecified), the IC50 turned out to be 11 µM in [1]; 7.5 µM with L1210; 12 µM in [5]; 1 µM in the data set with MCF7; 8 µM in the data set on CCRF-CEM; 50 µM in the data set with HeLa. In addition, the IC50 on Lipoxygenase (read-out: IC50) was 75 µM; in the data set on SW-620 it was at least 100 µM; in [6], 5 µM. Moreover, the results for the Activity in data set [2] and in data set [4] were 84% and 37%, respectively. The “inhibition (INH)” value in [3] turned out to be 82%.
As to `COc1cc(NC(C)CCCNC(=O)NNC(=O)NC(c2ccccc2)c2ccc(Cl)cc2)c2ncccc2c1` (stereo unspecified), the IC50 in [1] is 6 µM; in the data set on L1210, 8.8 µM; in data set [5] it was 9.6 µM; with MCF7 it was 2 µM; with CCRF-CEM, 5.5 µM; in the data set with HeLa it was 6.9 µM. In addition, the results for the IC50 (at Lipoxygenase (read-out: IC50); in the data set on SW-620; in [6]) were 70.5 µM, 3 µM and 3 µM, respectively. Besides, the results for the Activity in data set [2] and in data set [4] were 55% and 30%, respectively. The “inhibition (INH)” value in data set [3] worked out at 77%.
Consider `CC(Cc1ccc(O)c(O)c1)C(C)Cc1ccc(O)c(O)c1` (stereo unspecified) [NORDIHYDROGUAIARETIC ACID], for which the results for the Activity in data set [2] and in data set [4] were 91% and 80%, respectively. Also, in [7], the inhibition was 84%. In addition, the IC50 on Lipoxygenase (read-out: IC50) amounted to 28 µM.
For the compound `CN(C(=O)n1nnc2ccccc21)C(c1ccccc1)c1ccccc1`, the half-maximal inhibitory concentration (IC50) in [1] is 26 µM; in the data set with L1210 it was 15 µM; in [5], 28 µM; with MCF7, 23 µM; with CCRF-CEM, 24 µM; in the data set on HeLa, 25 µM. Moreover, the figures for the IC50 (on Lipoxygenase (read-out: IC50); in the data set on SW-620; in data set [6]) were 87.5 µM, at least 100 µM and 27 µM, respectively. Besides, the results for the Activity result in data set [2] and in data set [4] were “Not Active” and 3%, respectively. For the same compound, in data set [3], the “inhibition (INH)” value was determined as 76%.
With `COc1cc(NC(C)CCCNC(=O)NC(c2ccccc2)c2ccc(Cl)cc2)c2ncccc2c1` (stereo unspecified), the IC50 in data set [1] was 181 µM; in the data set on L1210, 94 µM; in [5], at least 250 µM; with MCF7 it was over 100 µM; in the data set with CCRF-CEM it was 86 µM; in the data set on HeLa, 186 µM. Moreover, the results for the IC50 (at Lipoxygenase (read-out: IC50); with SW-620; in [6]) were 57.9 µM, over 100 µM and over 100 µM, respectively. The Activity in data set [2] is 24%; in [4], 12%. For the same compound, the “inhibition (INH)” value in [3] stood at 90%.
`COc1ccc(/C(=N/NC(=O)NNC(=O)NCCCC(C)Nc2cc(OC)cc3cccnc23)c2ccccc2)cc1` (stereo unspecified): the IC50 is 13 µM in data set [1]; 6.2 µM in the data set with L1210; 12 µM in data set [5]; 2 µM in the data set on MCF7; 7.4 µM in the data set with CCRF-CEM; 18 µM in the data set with HeLa. Further, the IC50 at Lipoxygenase (read-out: IC50) worked out at 60.5 µM; in the data set with SW-620, 7 µM; in [6], 7 µM. Also, the Activity in [2] was 64%; in data set [4], 47%. Also, the “inhibition (INH)” value in [3] worked out at 78%.

The IC50 is the point on the concentration scale where inhibition reaches its midpoint. Broadly, the inhibition is the share of the control response that was lost under treatment.
